The record followed here is ChEMBL document CHEMBL1138104, “Isolation, structure elucidation, antioxidative and immunomodulatory properties of two novel dihydrocoumarins from Aloe vera” (Bioorg Med Chem Lett, 2006).

What is called inhibition is how much of the control response was suppressed. Read a low inhibition as a weak effect.

The test system of assay [1] is Radical scavenging activity. In words: Inhibition of hydroxyl radical scavenging activity. It counts as functional. The note with it: dose or concentration not given here.
The test system of assay [2] is Radical scavenging activity. As to the kind of experiment: Inhibition of superoxide radical scavenging activity. Type of assay: functional. As to conditions: dose or concentration not given here.
For assay [3], the system named is Peritoneal macrophage cell. As to the kind of experiment: Enhancement of respiratory burst in rat peritoneal macrophage at 200 uM. It counts as functional, cell-based.
Assay [4] relates to Peritoneal macrophage cell. As to the kind of experiment: Phagocytic function of rat peritoneal macrophage at 50-200 ug/ml. Type of assay: functional, cell-based.

Molecules are shown by their SMILES. Active and inactive are the calls of the source. The rule behind the calls is not given here.

For the compound `CCOC(=O)C[C@H](c1ccc(O)cc1)c1c(O)cc(O)c(-c2cc(OC)cc(=O)o2)c1C`, the values for the inhibition in assay [1] and in assay [2] were 42.3% and 30.3%, respectively. In assay [3], the result was inactive.
With `COc1cc(-c2c(O)cc3c(c2C)[C@@H](c2ccc(O)cc2)CC(=O)O3)oc(=O)c1`, the inhibition in assay [1] turned out to be 43.7%; in assay [2], 42.3%. Further, the Activity entry in assay [4] is “Dose-dependent effect”. Further, the result in assay [3] was Active.
